From ChEMBL document CHEMBL3832084, “DailyMed|setid=22191eca-c98d-4a07-844e-11edb0f04b8d | DIVIGEL - estradiol gel|Physicians Total Care, Inc” come the findings set out here.

Holding throughout (format): ADME, organism-based
The nature of data set [1]: (§1) Pharmacokinetic parameters for Estradiol on day 14, following multiple daily topical administration of Divigel 0.1 %,at steady state. The arrangement: dose 0.5 g, dose 1 g, dose 0.25 g, route topical. To be noted: human, in vivo, topical or ocular, dose 0.25 g, dosed compound id 17, dosed compound name ESTRADIOL, regimen Multiple daily dose, sampling time1 Day 14 days, study dosing duration 14 days, tissue Plasma.

For a further data set, the system named is Homo sapiens. The description is as §1. To be noted: in vivo, topical_or_ocular, dosed compound id 17, dosed compound name ESTRADIOL, regimen Multiple daily dose, sampling time1 Day 14 days, study dosing duration 14 days, tissue Plasma. The arrangement: dose 0.5 g, dose 1 g, dose 0.25 g, route topical.
Data set [2] is described as follows: Apparent terminal half-life of Estradiol evaluated after topical administration of Divigel. To be noted: human, in vivo, topical or ocular, dosed compound id 17, dosed compound name ESTRADIOL, tissue Plasma, read-out: t1/2(app) (converted).

In general, Tmax refers to the time at which the peak concentration occurs.

Regarding `C[C@]12CC[C@@H]3c4ccc(O)cc4CC[C@H]3[C@@H]1CC[C@@H]2O` [ESTRADIOL], the Tmax in data set [1] stood at 16 h; in the data set with Homo sapiens (dose 0.5 g) it was 10 h; in the data set on Homo sapiens (dose 1 g) it was 8 h. In addition, the Cavg is 0.0098 ng/mL with Homo sapiens (dose 0.25 g), 0.021 ng/mL with Homo sapiens (dose 0.5 g) and 0.0305 ng/mL in the data set on Homo sapiens (dose 1 g). The half-life in data set [2] is 10 h.
